Reference: patent publication US20230410294A1, “METHOD FOR GRADING THE NUCLEAR MORPHOLOGY OF A TUMOR” (Nanyang Technological University, priority 2020, published 2023)
Entries after “also recorded” stand apart in the source; their conditions may differ.

Tests used:
Type in all cases: cell-based
[1] = test system: SK-N-SH cells; assay: Nanopillar-guided subnuclear anisotropicity after anti-cancer drug treatment; conditions: SK-N-SH on nanopillar arrays, 24 h, DOX 1 μM, Etop 10 μM; for fraction of cells with dominant isotropic ring features and low deformation coherency: DMSO control 0.262±0.160, FIG. 19e; for pillar coherency: DMSO control 0.3853±0.1448, FIG. 19d
Method: (§1) Nanopillar arrays were cleaned and sterilized by air plasma and UV exposure before cell culture. The nanochip was then coated with fibronectin ([…], Sigma-Aldrich) for 30 minutes under 37° C. The SK-N-SH cells were seeded on the nanostructures after coating and grown in Eagle's Minimum Essential Medium (MEM) supplemented with 2 mM L-glutamine (Gibco), 1% MEM Non-Essential Amino Acids (NEAA) (Gibco), 10% fetal bovine serum (FBS) (Life Technologies) and 100 U ml^−1 penicillin and […] streptomycin (Life Technologies) in a standard incubator at 37° C. with 5% CO2. Drug treatment was done after overnight incubation, the SK-N-SH cells on nanostructures are treated with Etoposide (ETOP) (Sigma), Doxorubicin (DOX) (Sigma) or Dimethyl sulfoxide (DMSO) (Sigma). After 24-hour incubation, the treated cells and untreated cells were fixed with 4% Paraformaldehyde (PFA) Solution in PBS (Boster biological technology AR1068) for 15 minutes for subsequent immunostaining.
The nuclear morphology in SK-N-SH cells were visualized by immunostaining lamin A and lamin B1. The lamin A and vimentin level in cells were characterized by immunostaining lamin A and vimentin. Cells were cultured on nanopillars and incubated overnight before fixation with pre-warmed 4% Paraformaldehyde (PFA) in PBS (Boster biological technology AR1068) for 15 minutes at room temperature. After washing with PBS for three times, the cells were permeabilized in 0.5% Triton X-100 (Sigma) in PBS for 15 minutes, followed by blocking with 5% bovine serum albumin (BSA) (Sigma) in PBS for 1 hour. Subsequently, samples were incubated with primary antibodies (anti-lamin A, Abcam, ab26300; anti-lamin B1, Abcam, ab16048; anti-vimentin, Sigma, V5255.) at 1:400 dilution at room temperature for 1 hour or 4° C. overnight. […]
(§2) Fluorescence imaging and live cell imaging were done by confocal microscopy (Zeiss LSM 800 with Airyscan or a spinning disc confocal microscope (SDC) that is built around a Nikon Ti2 inverted microscope equipped with a Yokogawa CSU-W1 confocal spinning head). […] The live cell imaging and subsequent fluorescence imaging were done by SDC and the image acquisition and processing was controlled by MetaMorph (Molecular Device) software.
The guided subnuclear irregularities were characterized by measurement of their anisotropicity. […] After thresholding the cropped images of lamin A channel using the masks, the coherency, an indicator for anisotropy property, of the nanopillar-guided nuclear features was measured using orientationJ (a plugin function in ImageJ).

[2] = test system: SK-N-SH cells; assay: Lamin A level by immunostaining after anti-cancer drug treatment; conditions: SK-N-SH cells remaining attached after 24 h; DOX 1 μM, Etop 10 μM; vs DMSO; FIG. 19a-b
Method: as §1, with “After 24-hour incubation, the treated cells and untreated cells were fixed with 4% Paraformaldehyde (PFA) Solution in PBS (Boster biological technology AR1068) for 15 minutes for subsequent immunostaining.” left out
as §2

[3] = test system: MDA-MB-231 cells; assay: Nanopillar-guided subnuclear deformation anisotropy (coherency) after drug treatment
Method: Prior to cell culture, the nanostructured chips were cleaned by air plasma for 10 min and exposed to UV for 15 min Subsequently, the nanostructured substrates were coated with fibronectin (2 ug/ml, Sigma-Aldrich) for 30 minutes at 37° C. After coating, cell culture was performed on the substrates. All the cell lines used in this work were maintained in the Dulbecco's Modified Eagle Medium (DMEM) (Gibco) supplemented with 10% fetal bovine serum (FBS) (Life Technologies) and 1% Penicillin-Streptomycin (Life Technologies) in a standard incubator at 37° C. with 5% CO2. […] After 24-hour incubation, the treated cells and untreated cells were fixed with 4% Paraformaldehyde (PFA) Solution in PBS (Boster biological technology AR1068) for 15 minutes for subsequent immunostaining
Cells cultured on nanopillar arrays were immunostained for lamin A or lamin B1. Cells were washed with pre-warmed PBS two times and fixed with 4% paraformaldehyde (PFA) in phosphate-buffered saline (PBS) (Boster biological technology AR1068) for 15 minutes. The cells were washed three times with PBS and then permeabilized with 0.5% Triton X-100 (Sigma) in PBS for 15 minutes. After washing with PBS for three times, samples were blocked using 5% bovine serum albumin (BSA) (Sigma) in PBS for 1 hour before staining with 1:400 anti-lamin A (Abcam ab26300) and anti-lamin B1 (gift from the Saggio lab in Sapienza University of Rome). Samples were washed three times with PBS and stained with the secondary antibody, Chicken anti-Rabbit IgG (H+L) Cross-Adsorbed Secondary Antibody, Alexa Fluor 488 (Invitrogen A21441), 1:500 in staining buffer for 1 hour under room temperature.
Imaging of the fluorescently labeled cells on nanopillar arrays was performed using laser scanning confocal microscopy (Zeiss LSM 800 with Airyscan). In particular, a Plan-Apochromat 100×/1.4 oil objective was used. During imaging, fixed cells were maintained in PBS. Z stack images were acquired with 500 nm distance between each frame.
Anisotropicity of nanopillar-guided subnuclear shape irregularities was measured on nanopillar arrays. Firstly, one image with the best signal-to-background ratio in the stack was selected for subsequent characterization. Square masks (2.75 μm*2.75 μm) centered by the individual nanopillars were manually drawn based on the brightfield channel. Features that were guided by individual nanopillars were cropped using the generated masks. Subsequently, binary images of the guided features were extracted based on the background intensity (2 times of lowest 10% intensity used as a threshold) in the cropped images. Then, the anisotropicity of the subnuclear shape irregularities was measured as coherency, an indicator for anisotropy property, using orientationJ (a plugin function in ImageJ).

[4] = test system: MDA-MB-231 cells; assay: Wound healing assay (migration rate); conditions: MDA-MB-231, treatment for 24 h vs DMSO, p value=0.0363; FIG. 9e-f
Method: (§3) Cells were maintained in 35 mm dishes for each cell line until approximately 90% confluent. Scratch was made in the confluent monolayer of cells with a sterile […] pipette tip, and fresh culture medium was replaced. Brightfield microscopic pictures were taken of the same field at 24 hours. Migration rate was measured by quantifying the closure area within the same time frame using ImageJ.

[5] = test system: MCF-7 cells; assay: Wound healing assay (migration rate); conditions: MCF-7, treatment for 24 h vs DMSO, p value=0.7440; FIG. 9e-f
Method: as §3

[6] = test system: MCF-7 cells; assay: Nanopillar-guided subnuclear deformation anisotropy (coherency) after drug treatment; conditions: MCF-7 on nanopillar arrays, treated vs DMSO; FIG. 9c-d
Method: Prior to cell culture, the nanostructured chips were cleaned by air plasma for 10 min and exposed to UV for 15 min Subsequently, the nanostructured substrates were coated with fibronectin (2 ug/ml, Sigma-Aldrich) for 30 minutes at 37° C. After coating, cell culture was performed on the substrates. All the cell lines used in this work were maintained in the Dulbecco's Modified Eagle Medium (DMEM) (Gibco) supplemented with 10% fetal bovine serum (FBS) (Life Technologies) and 1% Penicillin-Streptomycin (Life Technologies) in a standard incubator at 37° C. with 5% CO2. […]
Imaging of the fluorescently labeled cells on nanopillar arrays was performed using laser scanning confocal microscopy (Zeiss LSM 800 with Airyscan). […] Live cell imaging and the subsequent fluorescence imaging was performed using a spinning disc confocal microscope (SDC) that is built around a Nikon Tit inverted microscope equipped with a Yokogawa CSU-W1 confocal spinning head, a Plan-Apo objective (100×1.45-NA), a back-illuminated sCMOS camera (Orca-Fusion; Hamamatsu). […]
Anisotropicity of nanopillar-guided subnuclear shape irregularities was measured on nanopillar arrays. […] Then, the anisotropicity of the subnuclear shape irregularities was measured as coherency, an indicator for anisotropy property, using orientationJ (a plugin function in ImageJ).

| Structure (SMILES) | fraction of cells with dominant isotropic ring features and low deformation coherency [1] | pillar coherency [1] | lamin A level (in words) [2] | lowest concentration at which pillar coherency value and fraction of line-deformation cells responded ([3]; MDA-MB-231, DMSO, 1 μM and 10 μM tested, FIG. 14) | pillar coherency value ([3]; MDA-MB-231 on nanopillar arrays (500 nm diameter, 3 μm pitch), 24-hour treatment, DMSO control 0.4218±0.1305, FIG. 9c) | fraction of line-deformation cells ([3]; MDA-MB-231 on nanopillar arrays, 24-hour treatment, line = cell coherency >0.3, DMSO control 0.9333±0.1155, FIG. 9d) | change in nuclear deformation coherency / line deformation (in words) ([3]; MDA-MB-231 on nanopillar arrays, treated vs DMSO) | migration rate change (in words) [4] | migration speed change (in words) [5] | change in anisotropy (coherency) of induced nuclear deformation (in words) [6] |
| --- | --- | --- | --- | --- | --- | --- | --- | --- | --- | --- |
| COc1cccc2c1C(=O)c1c(O)c3c(c(O)c1C2=O)C[C@@](O)(C(=O)CO)C[C@@H]3O[C@H]1C[C@H](N)[C@H](O)[C@H](C)O1 [DOX, doxorubicin] | 0.607±0.152 | 0.3057±0.1862 | significantly high lamin A level |  |  |  |  |  |  |  |
| COc1cc([C@@H]2c3cc4c(cc3[C@@H](O[C@@H]3O[C@@H]5CO[C@@H](C)O[C@H]5[C@H](O)[C@H]3O)[C@H]3COC(=O)[C@H]23)OCO4)cc(OC)c1O [Etop, etoposide] | 0.772±0.079 | 0.2606±0.1564 | significantly high lamin A level |  |  |  |  |  |  |  |
| COc1cc(/C=C/C(=O)CC(=O)/C=C/c2ccc(O)c(OC)c2)ccc1O [curcumin] |  |  |  | 1 µM | 0.2426±0.1570 | 0.2646±0.2695 | significant decreases in nuclear deformation coherency; also recorded: significantly less line deformation | lower migration rate | do not show significant changes in migration speed | no significant coherency changes; also recorded: No significant change |
